Values after ≈ are worked out from the molar mass of the structure shown. Where a SMILES comes first, the peptide text is derived from it. [ ]: non-standard residue; d: D form. The star is where a group is joined. Arachidoyl = CCCCCCCCCCCCCCCCCCCC(=O)*; Nlys = NCCCCNCC(=O)O
Key:
[1] = tested on: S.pneumoniae ATCC 49619; assay type: cell-based, Streptococcus pneumoniae; details: ATCC 49619, 24 h
Procedure: (§1) Antimicrobial activity of the purified lipopeptoids was determined without replication against a panel of clinically relevant and standard reference bacterial strains according to CLSI macrobroth standards. Stock solutions at 512 µg/mL were prepared in water, with DMSO as needed, and testing was performed in glass test tubes using Muller-Hinton broth and bacteria adjusted to 5 × 10^5 CFU/mL. Bacteria were incubated with the lipopeptoid of interest for 24 hr at 37°C prior to reading.
(§2) The bacteria Staphylococcus aureus ATCC 29213, methicillin-resistant S. aureus ATCC 33592, Staphylococcus epidermidis ATCC 14990, Enterococcus faecalis ATCC 29212, E. faecium ATCC 27270, Streptococcus pneumoniae ATCC 49619, Escherichia coli ATCC 25922, Pseudomonas aeruginosa ATCC 27853, and Klebsiella pneumoniae ATCC 13883 were acquired from the American Type Culture Collection (ATCC) and used as quality controls. The clinical strains methicillin-resistant S. epidermidis (MRSE) CAN-ICU 61589, E. coli CAN-ICU 61714, E. coli CAN-ICU 63074, P. aeruginosa CAN-ICU 62308, Stenotrophomonas maltophilia CAN-ICU 62584, Acinetobacter baumannii CAN-ICU 63169 were obtained from hospitals across Canada as part of the CAN-ICU studies, while methicillin-susceptible S. epidermidis (MSSE) 81388 was obtained from the 2008 CANWARD study.
(§3) After subculturing the relevant bacteria twice from frozen stock, in vitro activities of the antimicrobials were determined by macrobroth dilution methodology in accordance with the Clinical and Laboratory Standards Institute (CLSI) guidelines (3). The MICs were determined using glass test tubes (2 mL/tube) containing doubling antimicrobial dilutions of cation adjusted Mueller-Hinton broth inoculated to achieve a final concentration of approximately 5 x 10^5 CFU/mL, incubated in ambient air for 24 hr prior to reading. Colony counts were performed periodically to confirm inocula. The ATCC organisms […] ATCC 49619, Staphylococcus aureus ATCC 29213, Enterococcus faecalis ATCC 29212, Escherichia coli ATCC 25922, and Pseudomonas aeruginosa ATCC 27853 were used as quality control and to allow easy comparison to previously tested antimicrobials. Each test in this series was performed without replication. In our experience with cationic amphiphiles the results are accurate to within a single doubling.

[2] = tested on: S.aureus ATCC 29213; assay type: cell-based, Staphylococcus aureus; details: ATCC 29213, 24 h
Procedure: as §1, §2, §3

[3] = tested on: MRSE CAN-ICU 61589; assay type: cell-based, methicillin-resistant S. epidermidis; details: CAN-ICU 61589, 24 h
Procedure: as §1, §2, §3

[4] = tested on: A. baumannii CAN-ICU 63169; assay type: cell-based, Acinetobacter baumannii; details: CAN-ICU 63169, 24 h
Procedure: as §1, §2, §3

[5] = tested on: S. maltophilia CAN-ICU 62584; assay type: cell-based, Stenotrophomonas maltophilia; details: CAN-ICU 62584, 24 h
Procedure: as §1, §2, §3

[6] = tested on: MRSA ATCC 33592; assay type: cell-based, methicillin-resistant S. aureus; details: ATCC 33592, 24 h
Procedure: as §1, §2, §3

[7] = tested on: P.aeruginosa CAN-ICU 62308; assay type: cell-based, Pseudomonas aeruginosa; details: CAN-ICU 62308, 24 h
Procedure: as §1, §2, §3

[8] = tested on: P.aeruginosa ATCC 27853; assay type: cell-based, Pseudomonas aeruginosa; details: ATCC 27853, 24 h
Procedure: as §1, §2, §3

[9] = tested on: K.pneumoniae ATCC 13883; assay type: cell-based, Klebsiella pneumoniae; details: ATCC 13883, 24 h
Procedure: as §1, §2, §3

[10] = tested on: E. faecium ATCC 27270; assay type: cell-based; details: ATCC 27270, 24 h
Procedure: as §1, §2, §3

[11] = tested on: E.coli ATCC 25922; assay type: cell-based, Escherichia coli; details: ATCC 25922, 24 h
Procedure: as §1, §2, §3

[12] = tested on: E.coli CAN-ICU 63074; assay type: cell-based, Escherichia coli; details: CAN-ICU 63074, 24 h
Procedure: as §1, §2, §3

[13] = tested on: E.coli CAN-ICU 61714; assay type: cell-based, Escherichia coli; details: CAN-ICU 61714, 24 h
Procedure: as §1, §2, §3

[14] = tested on: MSSE 81388 CANWARD 2008; assay type: cell-based, methicillin-susceptible S. epidermidis; details: 24 h
Procedure: as §1, §2, §3

[15] = tested on: E. faecalis ATCC 29212; assay type: cell-based, Enterococcus faecalis; details: ATCC 29212, 24 h
Procedure: as §1, §2, §3

[16] = tested on: ovine erythrocytes; assay: Haemolytic assay; assay type: cell-based, sheep; details: ovine erythrocytes in Tris buffered saline, 30 minutes, absorbance of supernatant at 540 nm
Procedure: Mammalian cell toxicity was determined by measuring lysis of ovine erythrocytes, a standard model for human cell toxicity. Cells were prewashed with Tris buffered saline and then incubated with a variety of lipopeptoid concentrations for 30 minutes. Following centrifugation, lysis was evaluated by testing the absorbance of the solution at 540 nm, with 0.5% NH4OH used as a positive control.
Toxicity to mammalian cells was determined using a sheep red blood cell (erythrocyte) haemolytic assay (4). Erythrocytes were washed and resuspended in Tris buffered saline prior to use, at a concentration of 1.46 - 4.5 x 10^9 cells/mL (on average 3.08 x 10^9 cells/mL). The cell suspension was diluted with varying concentrations of antimicrobials, from 50 μg/mL to 1 mg/mL and incubated for thirty minutes (final erythrocyte concentration 4.08 x 10^8 cells/mL). The samples were centrifuged following treatment and the absorbance of the supernatant was measured at 540 nm. A solution of 0.5% […] was used as a positive control, with normal buffered solution as the negative control. The toxicity was assessed as a function of percent haemolysis.

Structure (SMILES)	MIC S.pneumoniae [1] [µg/mL]	MIC S.pneumoniae in the presence of 4% bovine serum albumin [1] [µg/mL]	MIC S.aureus [2] [µg/mL]	MIC S.aureus in the presence of 4% bovine serum albumin [2] [µg/mL]	MIC MRSE [3] [µg/mL]	MIC MRSE in the presence of 4% bovine serum albumin [3] [µg/mL]	MIC A. baumannii [4] [µg/mL]	MIC A. baumannii in the presence of 4% bovine serum albumin [4] [µg/mL]	MIC S. maltophilia [5] [µg/mL]	MIC S. maltophilia in the presence of 4% bovine serum albumin [5] [µg/mL]	MIC MRSA [6] [µg/mL]	MIC MRSA in the presence of 4% bovine serum albumin [6] [µg/mL]	MIC P.aeruginosa [7] [µg/mL]	MIC P.aeruginosa in the presence of 4% bovine serum albumin [7] [µg/mL]	MIC P.aeruginosa [8] [µg/mL]	MIC P.aeruginosa in the presence of 4% bovine serum albumin [8] [µg/mL]	MIC K.pneumoniae [9] [µg/mL]	MIC K.pneumoniae in the presence of 4% bovine serum albumin [9] [µg/mL]	MIC E. faecium [10] [µg/mL]	MIC E. faecium in the presence of 4% bovine serum albumin [10] [µg/mL]	also measured
CCCCCCCCCCC(=O)N(CCCCNC(=N)N)CC(=O)NCC(=O)N(CCCCNC(=N)N)CC(N)=O [C11-NhargGNharg]	512 (≈ 879 µM)	>512	128 (≈ 220 µM)	512	128 (≈ 220 µM)	512	512 (≈ 879 µM)	>512	>512	>512	128 (≈ 220 µM)	512	512 (≈ 879 µM)	512	>512	>512	512 (≈ 879 µM)	512	256 (≈ 439 µM)	512	MIC E.coli [11]: 512 µg/mL (≈ 879 µM); MIC E.coli in the presence of 4% bovine serum albumin [11]: 512 µg/mL; MIC E.coli [12]: 512 µg/mL (≈ 879 µM); MIC E.coli in the presence of 4% bovine serum albumin [12]: >512 µg/mL; MIC E.coli [13]: 512 µg/mL (≈ 879 µM); MIC E.coli in the presence of 4% bovine serum albumin [13]: >512 µg/mL; MIC MSSE [14]: 128 µg/mL (≈ 220 µM); MIC MSSE in the presence of 4% bovine serum albumin [14]: 256 µg/mL; MIC E. faecalis [15]: 256 µg/mL (≈ 439 µM); MIC E. faecalis in the presence of 4% bovine serum albumin [15]: >512 µg/mL; Percent haemolysis at 100µg/mL of compound [16]: 1.49%
CCCCCCCCCCCCCCCC(=O)N(CCCCN)CC(=O)N(CCCCN)CC(=O)N(CCCCN)CC(N)=O [C16-NlysNlysNlys]	128 (≈ 200 µM)	512	16 (≈ 25 µM)	512	8 (≈ 12.5 µM)	512	256 (≈ 400 µM)	>512	256 (≈ 400 µM)	>512	32 (≈ 50 µM)	>512	128 (≈ 200 µM)	>512	128 (≈ 200 µM)	>512	128 (≈ 200 µM)	>512	32 (≈ 50 µM)	>512	MIC E.coli [11]: 32 µg/mL (≈ 50 µM); MIC E.coli in the presence of 4% bovine serum albumin [11]: >512 µg/mL; MIC E.coli [12]: 64 µg/mL (≈ 100 µM); MIC E.coli in the presence of 4% bovine serum albumin [12]: >512 µg/mL; MIC E.coli [13]: 64 µg/mL (≈ 100 µM); MIC E.coli in the presence of 4% bovine serum albumin [13]: >512 µg/mL; MIC MSSE [14]: 8 µg/mL (≈ 12.5 µM); MIC MSSE in the presence of 4% bovine serum albumin [14]: 512 µg/mL; MIC E. faecalis [15]: 32 µg/mL (≈ 50 µM); MIC E. faecalis in the presence of 4% bovine serum albumin [15]: >512 µg/mL; Percent haemolysis at 100µg/mL of compound [16]: 67.69%
CCCCCCCCCCCCCCCCCCCC(=O)N(CCCCN)CC(=O)NCC(=O)N(CCCCN)CC(N)=O [C20-NlysGNlys] (Arachidoyl-[Nlys]-Gly-[Nlys]-NH2)	128 (≈ 205 µM)	512	8 (≈ 12.8 µM)	512	8 (≈ 12.8 µM)	512	128 (≈ 205 µM)	>512	128 (≈ 205 µM)	>512	16 (≈ 25.6 µM)	512	256 (≈ 410 µM)	>512	256 (≈ 410 µM)	>512	128 (≈ 205 µM)	>512	16 (≈ 25.6 µM)	512	MIC E.coli [11]: 256 µg/mL (≈ 410 µM); MIC E.coli in the presence of 4% bovine serum albumin [11]: >512 µg/mL; MIC E.coli [12]: 128 µg/mL (≈ 205 µM); MIC E.coli in the presence of 4% bovine serum albumin [12]: >512 µg/mL; MIC E.coli [13]: 256 µg/mL (≈ 410 µM); MIC E.coli in the presence of 4% bovine serum albumin [13]: >512 µg/mL; MIC MSSE [14]: 8 µg/mL (≈ 12.8 µM); MIC MSSE in the presence of 4% bovine serum albumin [14]: 256 µg/mL; MIC E. faecalis [15]: 16 µg/mL (≈ 25.6 µM); MIC E. faecalis in the presence of 4% bovine serum albumin [15]: 512 µg/mL; Percent haemolysis at 100µg/mL of compound [16]: 33.51%

Source: publication PMC3402541, “Guanidylation and Tail Effects in Cationic Antimicrobial Lipopeptoids” (PLoS ONE, 2012)
